T1: Cytochrome P450 1A2 (Homo sapiens, UniProt P05177)
T1 sequence (P05177 whole entry): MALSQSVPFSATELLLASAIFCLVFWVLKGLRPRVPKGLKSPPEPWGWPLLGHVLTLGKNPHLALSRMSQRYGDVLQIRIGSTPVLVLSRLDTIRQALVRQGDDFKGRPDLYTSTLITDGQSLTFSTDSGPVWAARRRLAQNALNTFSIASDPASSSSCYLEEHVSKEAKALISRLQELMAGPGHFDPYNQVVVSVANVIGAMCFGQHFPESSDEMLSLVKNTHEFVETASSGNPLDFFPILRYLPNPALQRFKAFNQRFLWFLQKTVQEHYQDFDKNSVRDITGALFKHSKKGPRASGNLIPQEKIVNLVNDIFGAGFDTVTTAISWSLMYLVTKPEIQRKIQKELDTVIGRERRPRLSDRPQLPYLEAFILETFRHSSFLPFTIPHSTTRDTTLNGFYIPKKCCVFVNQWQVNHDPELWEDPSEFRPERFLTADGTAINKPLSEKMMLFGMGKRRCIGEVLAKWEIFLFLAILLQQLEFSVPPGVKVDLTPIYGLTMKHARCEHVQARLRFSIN

T2: Cytochrome P450 1A1 (Homo sapiens, UniProt P04798)
T2 sequence (P04798 whole entry): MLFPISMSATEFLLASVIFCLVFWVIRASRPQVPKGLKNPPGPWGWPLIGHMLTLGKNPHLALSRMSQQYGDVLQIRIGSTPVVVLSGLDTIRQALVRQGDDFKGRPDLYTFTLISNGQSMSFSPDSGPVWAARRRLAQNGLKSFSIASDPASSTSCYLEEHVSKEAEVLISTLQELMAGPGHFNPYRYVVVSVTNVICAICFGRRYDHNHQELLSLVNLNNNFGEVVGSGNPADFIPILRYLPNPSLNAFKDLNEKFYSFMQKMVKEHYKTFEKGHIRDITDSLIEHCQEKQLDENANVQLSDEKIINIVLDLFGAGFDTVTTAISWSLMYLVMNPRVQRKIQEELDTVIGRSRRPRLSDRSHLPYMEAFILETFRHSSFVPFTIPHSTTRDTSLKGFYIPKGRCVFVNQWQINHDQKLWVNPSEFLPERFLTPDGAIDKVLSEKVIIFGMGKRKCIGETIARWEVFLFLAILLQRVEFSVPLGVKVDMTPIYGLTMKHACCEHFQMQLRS

T3: Cytochrome P450 2B6 (Homo sapiens, UniProt P20813)
T3 sequence (P20813 whole entry): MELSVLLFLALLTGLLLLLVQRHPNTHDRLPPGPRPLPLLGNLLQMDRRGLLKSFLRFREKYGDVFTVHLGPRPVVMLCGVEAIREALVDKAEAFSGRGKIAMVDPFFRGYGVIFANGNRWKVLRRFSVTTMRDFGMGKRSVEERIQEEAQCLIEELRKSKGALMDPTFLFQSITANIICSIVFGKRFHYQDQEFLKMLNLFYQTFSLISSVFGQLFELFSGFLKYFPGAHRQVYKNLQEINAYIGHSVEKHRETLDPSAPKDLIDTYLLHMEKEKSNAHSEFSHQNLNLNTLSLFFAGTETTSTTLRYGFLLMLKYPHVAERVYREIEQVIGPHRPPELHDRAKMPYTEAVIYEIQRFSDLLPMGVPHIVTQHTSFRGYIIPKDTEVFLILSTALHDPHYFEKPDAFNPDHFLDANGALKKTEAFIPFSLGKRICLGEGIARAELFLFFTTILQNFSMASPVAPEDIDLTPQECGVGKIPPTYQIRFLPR

T4: Cytochrome P450 4F3 (Homo sapiens, UniProt Q08477)
T4 sequence (Q08477 whole entry): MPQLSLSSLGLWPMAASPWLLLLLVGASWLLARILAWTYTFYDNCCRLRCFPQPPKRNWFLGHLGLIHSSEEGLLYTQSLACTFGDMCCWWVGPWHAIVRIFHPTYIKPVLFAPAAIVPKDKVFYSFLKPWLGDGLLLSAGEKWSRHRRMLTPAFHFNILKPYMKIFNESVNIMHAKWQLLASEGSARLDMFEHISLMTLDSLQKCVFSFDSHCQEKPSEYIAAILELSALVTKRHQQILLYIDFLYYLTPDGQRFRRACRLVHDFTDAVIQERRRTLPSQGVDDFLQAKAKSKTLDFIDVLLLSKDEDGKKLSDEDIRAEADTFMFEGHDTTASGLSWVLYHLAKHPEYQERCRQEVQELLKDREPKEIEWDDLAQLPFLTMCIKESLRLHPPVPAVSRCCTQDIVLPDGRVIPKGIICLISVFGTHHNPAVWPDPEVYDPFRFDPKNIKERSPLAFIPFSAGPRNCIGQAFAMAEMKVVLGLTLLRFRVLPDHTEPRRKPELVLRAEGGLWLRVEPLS


Experiments:
Cytochrome P450 3A4 [1] = molecular target: T5, Cytochrome P450 3A4 (Homo sapiens, UniProt P08684); test: Drug metabolism assessed as human CYP3A4-mediated compound formation from 5 uM [14C]boceprevir after 120 mins by LC-MS/FSA method relative to total [14C]boceprevir; assay type: ADME; settings: recombinant enzyme, 2 h
Cytochrome P450 3A4 [2] = molecular target: T5, Cytochrome P450 3A4; test: Drug metabolism assessed as human CYP3A4-mediated compound formation from 20 uM [14C]boceprevir after 120 mins by LC-MS/FSA method relative to total [14C]boceprevir; assay type: ADME; settings: recombinant enzyme, 2 h
Cytochrome P450 3A5 [3] = molecular target: T6, Cytochrome P450 3A5 (Homo sapiens, UniProt P20815); test: Drug metabolism assessed as human CYP3A5-mediated compound formation from 20 uM [14C]boceprevir after 120 mins by LC-MS/FSA method relative to total [14C]boceprevir; assay type: ADME; settings: recombinant enzyme, 2 h
Cytochrome P450 1A2 = molecular target: T1, Cytochrome P450 1A2; test: (§1) Drug metabolism assessed as human […]-mediated compound formation from 5 uM [14C]boceprevir after 120 mins by LC-MS/FSA method relative to total [14C]boceprevir; assay type: ADME; settings: recombinant enzyme, 2 h
Cytochrome P450 1A1 = molecular target: T2, Cytochrome P450 1A1; test: as §1; assay type: ADME; settings: recombinant enzyme, 2 h
Cytochrome P450 2B6 = molecular target: T3, Cytochrome P450 2B6; test: Drug metabolism assessed as human CYP2B6-mediated compound formation from 5 uM [14C]boceprevir after 120 mins by LC-MS/FSA method relative to total [14C]boceprevir; assay type: ADME; settings: recombinant enzyme, 2 h
Cytochrome P450 3A5 [4] = molecular target: T6, Cytochrome P450 3A5; test: Drug metabolism assessed as human CYP3A5-mediated compound formation from 5 uM [14C]boceprevir after 120 mins by LC-MS/FSA method relative to total [14C]boceprevir; assay type: ADME; settings: recombinant enzyme, 2 h
Plasma = test: Drug metabolism in human plasma treated with [14C]boceprevir assessed as ratio of drug level by LC-MS/MS method relative to boceprevir; assay type: ADME, cell-free
Cytochrome P450 2D6 = Cytochrome P450 2D6 (Homo sapiens, UniProt P10635); test: Drug metabolism assessed as human CYP2D6-mediated compound formation from 5 uM [14C]boceprevir after 120 mins by LC-MS/FSA method relative to total [14C]boceprevir; assay type: ADME; settings: recombinant enzyme, 2 h
[5] = Retention time of the compound by LC-MS/MS method; assay type: physicochemical
Cytochrome P450 4F3 = molecular target: T4, Cytochrome P450 4F3; test: Drug metabolism assessed as human CYP4F3A-mediated compound formation from 5 uM [14C]boceprevir after 120 mins by LC-MS/FSA method relative to total [14C]boceprevir; assay type: ADME; settings: recombinant enzyme, 2 h
Liver microsome [6] = test: Drug metabolism in human liver microsomes treated with 20 uM [14C]boceprevir assessed as compound formation by LC-MS/FSA method relative to total [14C]boceprevir; assay type: ADME
Liver cytosol [7] = test: Ratio of Vmax to Km for drug metabolism in human liver cytosol assessed as (1R,2S,5S)-N-((2S,3R)-4-amino-1-cyclobutyl-3-hydroxy-4-oxobutan-2-yl)-3-((S)-2-(3-tert-butylureido)-3,3-dimethylbutanoyl)-6,6-dimethyl-3-azabicyclo[3.1.0]hexane-2-carboxamide formation per mg protein after 60 mins by LC-MS/MS/FSA method; assay type: ADME; settings: 1 h
Liver microsome [8] = test: Drug metabolism in human liver microsomes treated with 5 uM [14C]boceprevir assessed as compound formation by LC-MS/FSA method relative to total [14C]boceprevir; assay type: ADME
Liver cytosol [9] = test: Drug metabolism in human liver cytosol assessed as (1R,2S,5S)-N-((2S,3R)-4-amino-1-cyclobutyl-3-hydroxy-4-oxobutan-2-yl)-3-((S)-2-(3-tert-butylureido)-3,3-dimethylbutanoyl)-6,6-dimethyl-3-azabicyclo[3.1.0]hexane-2-carboxamide formation after 60 mins by LC-MS/MS/FSA method; assay type: ADME, tissue-based; settings: 1 h
Cytochrome P450 2C19 = Cytochrome P450 2C19 (Homo sapiens, UniProt P33261); test: Drug metabolism assessed as human CYP2C19-mediated compound formation from 5 uM [14C]boceprevir after 120 mins by LC-MS/FSA method relative to total [14C]boceprevir; assay type: ADME; settings: recombinant enzyme, 2 h
Liver cytosol [10] = test: Drug metabolism in human liver cytosol assessed as (1R,2S,5S)-N-((2S,3R)-4-amino-1-cyclobutyl-3-hydroxy-4-oxobutan-2-yl)-3-((S)-2-(3-tert-butylureido)-3,3-dimethylbutanoyl)-6,6-dimethyl-3-azabicyclo[3.1.0]hexane-2-carboxamide formation per mg protein after 60 mins by LC-MS/MS/FSA method; assay type: ADME, tissue-based; settings: 1 h
[11] = substrate: CC(C)(C)NC(=O)N[C@H](C(=O)N1C[C@H]2[C@@H]([C@H]1C(=O)NC(CC1CCC1)C(=O)C(N)=O)C2(C)C)C(C)(C)C; test: Activity of human recombinant AKR1C2 expressed in HEK293 cells assessed as (1R,2S,5S)-N-((2S,3R)-4-amino-1-cyclobutyl-3-hydroxy-4-oxobutan-2-yl)-3-((S)-2-(3-tert-butylureido)-3,3-dimethylbutanoyl)-6,6-dimethyl-3-azabicyclo[3.1.0]hexane-2-carboxamide formation after 120 mins in presence of NADPH by LC-MS/MS/FSA method; assay type: ADME, cell-based

T6 sequence (P20815 whole entry): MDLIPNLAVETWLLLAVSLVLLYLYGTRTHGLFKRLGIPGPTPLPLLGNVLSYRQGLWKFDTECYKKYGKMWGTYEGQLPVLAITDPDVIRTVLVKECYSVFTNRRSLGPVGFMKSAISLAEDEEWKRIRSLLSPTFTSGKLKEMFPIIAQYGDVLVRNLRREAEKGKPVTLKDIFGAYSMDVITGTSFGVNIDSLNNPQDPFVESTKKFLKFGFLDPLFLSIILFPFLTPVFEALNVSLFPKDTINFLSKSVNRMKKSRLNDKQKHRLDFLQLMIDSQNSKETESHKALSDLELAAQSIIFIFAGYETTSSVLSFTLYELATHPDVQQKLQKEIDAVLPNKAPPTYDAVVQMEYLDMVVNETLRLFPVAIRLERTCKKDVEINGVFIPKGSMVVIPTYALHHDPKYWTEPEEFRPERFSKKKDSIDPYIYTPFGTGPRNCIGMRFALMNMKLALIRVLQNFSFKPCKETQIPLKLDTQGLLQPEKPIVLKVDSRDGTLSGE
T5 sequence (P08684 whole entry): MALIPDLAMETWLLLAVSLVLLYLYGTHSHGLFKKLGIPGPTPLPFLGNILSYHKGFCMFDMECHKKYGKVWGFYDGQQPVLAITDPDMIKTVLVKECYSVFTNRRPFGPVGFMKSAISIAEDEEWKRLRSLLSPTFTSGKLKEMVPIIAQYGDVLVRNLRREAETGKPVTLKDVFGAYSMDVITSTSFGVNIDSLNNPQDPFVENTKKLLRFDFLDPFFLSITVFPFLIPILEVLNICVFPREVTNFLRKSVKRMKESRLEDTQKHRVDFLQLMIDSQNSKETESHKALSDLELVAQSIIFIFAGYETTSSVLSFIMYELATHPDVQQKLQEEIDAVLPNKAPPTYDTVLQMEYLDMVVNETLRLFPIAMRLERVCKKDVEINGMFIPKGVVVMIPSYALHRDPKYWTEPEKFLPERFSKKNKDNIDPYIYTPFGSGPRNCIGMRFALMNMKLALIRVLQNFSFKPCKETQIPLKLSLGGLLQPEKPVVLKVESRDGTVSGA
Cytochrome P450 2D6, sequence (P10635 whole entry): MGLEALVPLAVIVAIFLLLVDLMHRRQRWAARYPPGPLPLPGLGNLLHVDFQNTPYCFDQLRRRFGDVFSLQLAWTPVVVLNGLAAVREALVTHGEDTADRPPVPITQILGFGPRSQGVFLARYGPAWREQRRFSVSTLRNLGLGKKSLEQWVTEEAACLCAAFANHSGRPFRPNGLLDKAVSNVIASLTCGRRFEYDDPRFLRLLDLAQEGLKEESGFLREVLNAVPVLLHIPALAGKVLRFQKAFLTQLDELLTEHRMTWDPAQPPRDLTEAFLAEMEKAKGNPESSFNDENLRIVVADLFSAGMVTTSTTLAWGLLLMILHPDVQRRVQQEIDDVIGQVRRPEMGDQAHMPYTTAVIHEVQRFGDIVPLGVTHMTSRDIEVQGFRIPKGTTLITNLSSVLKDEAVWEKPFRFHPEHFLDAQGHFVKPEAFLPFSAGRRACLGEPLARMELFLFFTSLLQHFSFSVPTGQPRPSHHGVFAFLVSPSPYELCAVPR
Cytochrome P450 2C19, sequence (P33261 whole entry): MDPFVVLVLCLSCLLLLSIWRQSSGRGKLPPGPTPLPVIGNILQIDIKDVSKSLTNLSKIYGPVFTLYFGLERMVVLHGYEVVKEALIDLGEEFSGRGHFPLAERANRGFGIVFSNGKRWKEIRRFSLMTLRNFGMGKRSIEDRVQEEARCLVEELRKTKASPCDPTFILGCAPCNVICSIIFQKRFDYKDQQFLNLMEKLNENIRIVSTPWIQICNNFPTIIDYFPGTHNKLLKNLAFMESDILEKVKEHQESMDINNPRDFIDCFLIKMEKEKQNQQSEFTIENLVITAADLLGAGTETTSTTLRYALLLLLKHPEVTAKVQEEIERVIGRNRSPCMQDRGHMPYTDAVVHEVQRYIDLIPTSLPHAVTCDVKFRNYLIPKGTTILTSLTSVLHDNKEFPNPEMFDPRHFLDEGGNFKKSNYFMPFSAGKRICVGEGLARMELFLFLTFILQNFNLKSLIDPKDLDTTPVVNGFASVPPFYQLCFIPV

Compound recovery (Cytochrome P450 3A4 [1]) | Compound recovery (Cytochrome P450 3A4 [2]) | Compound recovery (Cytochrome P450 3A5 [3]) | Compound recovery (Cytochrome P450 1A2) | Compound recovery (Cytochrome P450 1A1) | Compound recovery (Cytochrome P450 2B6) | Compound recovery (Cytochrome P450 3A5 [4]) | Compound recovery (Plasma) | Compound recovery (Cytochrome P450 2D6) | Retention_time [5] | Compound recovery (Cytochrome P450 4F3) | Compound recovery (Liver microsome [6]) | Compound recovery (Cytochrome P450 3A4 [1]; BLD = below limit of detection) | Vmax/Km (Liver cytosol [7]) | Compound recovery (Liver microsome [8]) | Km (Liver cytosol [9]) | Compound recovery (Cytochrome P450 2C19) | Vmax (Liver cytosol [10]) | Molecule | Km [11] | Vmax [11]
< 3.45% | < 4.64% | 2.87% | 1.37% | 2.9% | 2.06% | 15.74% | 10% | 1.9% | 22.2 min | 0.61% |  |  |  |  |  |  |  | CC(C)(C)NC(=O)N[C@H](C(=O)N1C[C@H]2[C@@H]([C@H]1C(N)=O)C2(C)C)C(C)(C)C |  | 
 | 37.98% | 38.77% | 59.66% | 55.46% | 56.54% | 0.98% | >= 50% | 57.22% | 42.8 min | 57.31% | 26.12% | BLD | 10.2 µL/min | 0.21% | 35.5 µM | 60.3% | 0.361 pmol/min | CC(C)(C)NC(=O)N[C@H](C(=O)N1C[C@H]2[C@@H]([C@H]1C(=O)N[C@@H](CC1CCC1)C(=O)C(N)=O)C2(C)C)C(C)(C)C [BOCEPREVIR] |  | 
 |  |  |  |  |  |  |  |  |  |  |  |  |  |  |  |  |  | Aldo-keto reductase family 1 member C2 (Homo sapiens) (protein) MDSKYQCVKLNDGHFMPVLGFGTYAPAEVPKSKALEAVKLAIEAGFHHIDSAHVYNNEEQVGLAIRSKIADGSVKREDIFYTSKLWSNSHRPELVRPALERSLKNLQLDYVDLYLIHFPVSVKPGEEVIPKDENGKILFDTVDLCATWEAMEKCKDAGLAKSIGVSNFNHRLLEMILNKPGLKYKPVCNQVECHPYFNQRKLLDFCKSKDIVLVAYSALGSHREEPWVDPNSPVLLEDPVLCALAKKHKRTPALIALRYQLQRGVVVLAKSYNEQRIRQNVQVFEFQLTSEEMKAIDGLNRNVRYLTLDIFAGPPNYPFSDEY | 52.3 µM | 4.07e-05 µmol/min
